Measured values: ChEMBL document CHEMBL4346657, “Anticancer activity, dual prooxidant/antioxidant effect and apoptosis induction profile of new bichalcophene-5-carboxamidines” (Eur J Med Chem, 2019)
The source made the active and inactive calls. No cut-off for these calls is given here.

Columns and labels:
LOX IMVI = assay: Antiproliferative activity against human LOXIMVI cells assessed as growth inhibition after 48 hrs by sulforhodamine B assay; format: functional
MCF7 = assay: Antiproliferative activity against human MCF7 cells assessed as growth inhibition after 48 hrs by sulforhodamine B assay; format: functional; settings: MCF7, 48 h
CCRF-CEM = assay: Antiproliferative activity against human CCRF-CEM cells assessed as growth inhibition after 48 hrs by sulforhodamine B assay; format: functional
KM12 = assay: Antiproliferative activity against human KM12 cells assessed as growth inhibition after 48 hrs by sulforhodamine B assay; format: functional; settings: KM12, 48 h
SNB-19 = assay: Antiproliferative activity against human SNB19 cells assessed as growth inhibition after 48 hrs by sulforhodamine B assay; format: functional; settings: SNB-19, 48 h
Erythrocyte [1] = assay: Haemolytic activity in human erythrocytes assessed as induction of hemolysis at 1.25 mM after 30 mins relative to H202; format: cell-based; settings: erythrocyte, 0.5 h, 1250 µM
EKVX = assay: Antiproliferative activity against human EKVX cells assessed as growth inhibition after 48 hrs by sulforhodamine B assay; format: functional
NCI-H322M = assay: Antiproliferative activity against human NCI-H322M cells assessed as growth inhibition after 48 hrs by sulforhodamine B assay; format: functional
HCT-15 = assay: Antiproliferative activity against human HCT15 cells assessed as growth inhibition after 48 hrs by sulforhodamine B assay; format: functional; settings: HCT-15, 48 h
SK-MEL-28 = assay: Antiproliferative activity against human SK-MEL-28 cells assessed as growth inhibition after 48 hrs by sulforhodamine B assay; format: functional; settings: SK-MEL-28, 48 h
DU-145 = assay: Antiproliferative activity against human DU145 cells assessed as growth inhibition after 48 hrs by sulforhodamine B assay; format: functional; settings: DU-145, 48 h
[2] = Selectivity index, ratio of IC50 for human WI38 cells to GI50 for human NCI60 cells
HCT-116 [3] = assay: Induction of apoptosis in human HCT116 cells assessed as increase in caspase 9 mRNA expression at 100 nM after 6 hrs hrs by SYBR green dye-based qRT-PCR analysis relative to control; format: functional
A549 = assay: Antiproliferative activity against human A549/ATCC cells assessed as growth inhibition after 48 hrs by sulforhodamine B assay; format: functional; settings: A549, 48 h
UACC-62 = assay: Antiproliferative activity against human UACC62 cells assessed as growth inhibition after 48 hrs by sulforhodamine B assay; format: functional; settings: UACC-62, 48 h
[4] = Antioxidant activity assessed as hydroxyl radical scavenging activity after 1 hr by salicylic acid-based Fenton reaction assay; format: functional
HCT-116 [5] = assay: Induction of apoptosis in human HCT116 cells assessed as increase in p53 mRNA expression at 100 nM after 6 hrs hrs by SYBR green dye-based qRT-PCR analysis relative to control; format: functional
PC-3 = assay: Antiproliferative activity against human PC3 cells assessed as growth inhibition after 48 hrs by sulforhodamine B assay; format: functional; settings: PC-3, 48 h
M14 = assay: Antiproliferative activity against human M14 cells assessed as growth inhibition after 48 hrs by sulforhodamine B assay; format: functional; settings: M14, 48 h
T47D = assay: Antiproliferative activity against human T47D cells assessed as growth inhibition after 48 hrs by sulforhodamine B assay; format: functional
HL-60(TB) = assay: Antiproliferative activity against human HL-60(TB) cells assessed as growth inhibition after 48 hrs by sulforhodamine B assay; format: functional; settings: HL-60, 48 h
SK-MEL-5 = assay: Antiproliferative activity against human SK-MEL-5 cells assessed as growth inhibition after 48 hrs by sulforhodamine B assay; format: functional; settings: SK-MEL-5, 48 h
MDA-MB-435 = assay: Antiproliferative activity against human MDA-MB-435 cells assessed as growth inhibition after 48 hrs by sulforhodamine B assay; format: functional; settings: MDA-MB-435, 48 h
SR = assay: Antiproliferative activity against human SR cells assessed as growth inhibition after 48 hrs by sulforhodamine B assay; format: functional
SN12C = assay: Antiproliferative activity against human SN12C cells assessed as growth inhibition after 48 hrs by sulforhodamine B assay; format: functional
COLO 205 = assay: Antiproliferative activity against human COLO205 cells assessed as growth inhibition after 48 hrs by sulforhodamine B assay; format: functional; settings: COLO 205, 48 h
OVCAR-5 = assay: Antiproliferative activity against human OVCAR5 cells assessed as growth inhibition after 48 hrs by sulforhodamine B assay; format: functional; settings: OVCAR-5, 48 h
K562 = assay: Antiproliferative activity against human K562 cells assessed as growth inhibition after 48 hrs by sulforhodamine B assay; format: functional, cell-based; settings: K562, 48 h, read-out: IC50
[6] = (§1) Haemolytic activity in human erythrocytes assessed as induction of hemolysis at 2.5 mM after 30 mins relative to H202; format: cell-based, Erythrocyte; settings: erythrocytes, read-out: Activity
SF-539 = assay: Antiproliferative activity against human SF539 cells assessed as growth inhibition after 48 hrs by sulforhodamine B assay; format: functional; settings: SF-539, 48 h
MDA-MB-468 = assay: Antiproliferative activity against human MDA-MB-468 cells assessed as growth inhibition after 48 hrs by sulforhodamine B assay; format: functional; settings: MDA-MB-468, 48 h
UO-31 = assay: Antiproliferative activity against human UO31 cells assessed as growth inhibition after 48 hrs by sulforhodamine B assay; format: functional; settings: UO-31, 48 h
CAKI-1 = assay: Antiproliferative activity against human CAKI-1 cells assessed as growth inhibition after 48 hrs by sulforhodamine B assay; format: functional; settings: CAKI-1, 48 h
[7] = Antioxidant activity assessed as ABTS radical scavenging activity by spectrophotometric analysis relative to control; format: functional; design: concentration or dose not given beside the values; settings: dose or concentration not given here
[8] = Pro-oxidant activity assessed as increase in bleomycin-Fe2+ induced calf thymus DNA damage at 2 mM after 1 hr by thiobarbituric acid based absorbance analysis
HOP-92 = assay: Antiproliferative activity against human HOP92 cells assessed as growth inhibition after 48 hrs by sulforhodamine B assay; format: functional; settings: HOP-92, 48 h
SK-MEL-2 = assay: Antiproliferative activity against human SK-MEL-2 cells assessed as growth inhibition after 48 hrs by sulforhodamine B assay; format: functional; settings: SK-MEL-2, 48 h
Erythrocyte [9] = assay: as §1; format: cell-based; settings: erythrocyte, 0.5 h, 2500 µM
HCT-116 [10] = assay: Reduction in CDK1 mRNA expression in human HCT116 cells at 100 nM after 6 hrs hrs by SYBR green dye-based qRT-PCR analysis relative to control; format: functional; settings: HCT-116, 6 h

SMILES	GI50 (LOX IMVI) [µM]	GI50 (MCF7) [µM]	GI50 (CCRF-CEM) [µM]	GI50 (KM12) [µM]	GI50 (SNB-19) [µM]	Activity (Erythrocyte [1])	GI50 (EKVX) [µM]	GI50 (NCI-H322M) [µM]	GI50 (HCT-15) [µM]	GI50 (SK-MEL-28) [µM]	GI50 (DU-145) [µM]	Selectivity Index [2]	fold change (FC) (HCT-116 [3])	GI50 (A549) [µM]	GI50 (UACC-62) [µM]	Activity [4]	fold change (FC) (HCT-116 [5])	GI50 (PC-3) [µM]	GI50 (M14) [µM]	GI50 (T47D) [µM]	also measured
COc1cc(-c2ccc(-c3ccc(C(=N)N)s3)s2)cc(OC)c1OC	1.61	1.66	3.42	1.73	2.16	Non-Toxic	1.92	2.38	1.91	1.58	2.32	34.4	2.81	2.14	1.7	Active	1.01	1.77	1.7	1.7	GI50 (HL-60(TB)): 2.7 µM; GI50 (SK-MEL-5): 1.52 µM; GI50 (MDA-MB-435): 1.64 µM; GI50 (SR): 1.83 µM; GI50 (SN12C): 1.61 µM; GI50 (COLO 205): 2.13 µM; GI50 (OVCAR-5): 1.47 µM; IC50 (K562): 1.11 µM; hemolysis at 0.5 h, 2500 µM [6]: 11.3%; GI50 (SF-539): 1.58 µM; GI50 (MDA-MB-468): 1.82 µM; GI50 (UO-31): 1.74 µM; GI50 (CAKI-1): 1.7 µM; inhibition [7]: 75.4%; Activity [8]: Active; GI50 (HOP-92): 1.14 µM
N=C(N)c1ccc(-c2ccc(-c3ccc4ccccc4c3)s2)s1	1.71	1.75	1.87	1.92	1.95	Non-Toxic	2.46	1.64	1.69	2.25	1.83	34	2.33	2.03	2.1	Active	1	2.19	2.45	1.95	GI50 (HL-60(TB)): 1.81 µM; GI50 (SK-MEL-5): 14.7 µM; GI50 (MDA-MB-435): 1.91 µM; GI50 (SR): 1.05 µM; GI50 (SK-MEL-2): 2.52 µM; GI50 (SN12C): 1.87 µM; GI50 (COLO 205): 1.63 µM; GI50 (OVCAR-5): 1.81 µM; IC50 (K562): 1.53 µM; Activity (Erythrocyte [9]): Non-Toxic; GI50 (SF-539): 1.97 µM; GI50 (MDA-MB-468): 2.38 µM; GI50 (UO-31): 1.96 µM; GI50 (CAKI-1): 3.11 µM; inhibition [7]: 72.8%; Activity [8]: Active
N=C(N)c1ccc(-c2ccc(-c3cc(Cl)cc(Cl)c3)o2)o1	1.68	1.35	1.87	1.65	1.99	Non-Toxic	1.64	1.62	1.64	1.73	1.78	9.2	2.97	1.95	1.94	Active	1.99	1.8	1.86	1.72	inhibition at 0.1 µM (HCT-116 [10]): 46%; GI50 (HL-60(TB)): 1.62 µM; GI50 (SK-MEL-5): 1.86 µM; GI50 (MDA-MB-435): 1.61 µM; GI50 (SR): 0.63 µM; GI50 (SK-MEL-2): 2.02 µM; GI50 (SN12C): 1.97 µM; GI50 (COLO 205): 1.31 µM; GI50 (OVCAR-5): 1.81 µM; IC50 (K562): 1.3 µM; hemolysis at 0.5 h, 2500 µM [6]: 11.1%; GI50 (SF-539): 1.72 µM; GI50 (MDA-MB-468): 2.23 µM; GI50 (UO-31): 1.71 µM; GI50 (CAKI-1): 1.7 µM; inhibition [7]: 19%; Activity [8]: Active
